Read-outs that look alike come from different tables or passages of the source.
Columns and labels:
[1] = tested on: SMN2 minigene (full length SMN2 minigene mRNA containing SMN2 exon 7); assay: SMN2 minigene mRNA splicing RT-qPCR assay in cultured cells; format: cell-based, human; conditions: Homo sapiens, HEK293-H, read-out: EC1.5x for production of full length SMN2 mRNA
Procedure, shortened: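 HEK293H cells stably carrying the SMN2-A minigene treated 24 h at 37° C with compound (DMSO, 200× stock), then lysed. Multiplex RT-qPCR (SMN primers 0.4 μM final; 40 cycles) measures full-length exon 7-containing minigene mRNA, normalized to GAPDH and to vehicle; EC1.5x derived and binned by stars.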

Smn protein = Smn protein assay in cultured cells (SMN HTRF); format: cell-based, human; conditions: for EC1.5x (concentration giving 1.5-fold Smn protein increase): read-out: EC1.5x for Smn protein expression
Procedure, shortened: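 Lysates in RIPA with protease inhibitors are incubated overnight at room temperature with HTRF anti-SMN antibodies. EC1.5x is derived from fold increase in ΔF over vehicle.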

[2] = HEK293H cells stably transfected with SMN2-A minigene, 24 hours, 7-point concentration curve, 1.5-fold relative to vehicle-treated cells
[3] = SMA patient fibroblast cells, 48 hours, 7-point concentration data, fold increase relative to vehicle control (SMN HTRF)
[4] = SMA Type 1 patient fibroblast cells (GM03813), 48 hours, 7-point concentration curve, SMN HTRF, concentration producing 1.5 times Smn protein vs DMSO vehicle control

| melting point | Structure (SMILES) | EC (1.5-fold) ([1]; 24 h) | maximum fold (Fold) increase of Smn protein (Smn protein) | EC1.5x (concentration giving 1.5-fold Smn protein increase) (Smn protein) | EC (1.5-fold) [1, 2] | maximum fold (Fold) increase of Smn protein (Smn protein; [3]) | EC1.5x (concentration giving 1.5-fold Smn protein increase) (Smn protein; [4]) |
| --- | --- | --- | --- | --- | --- | --- | --- |
| 133 to 135 °C | CCN1C[C@@H]2C[C@H]1CN2c1ccc2cc(-c3cn4cc(C)nc(C)c4n3)c(=O)oc2c1 [Compound 793, 3-(6,8-dimethylimidazo[1,2-a]pyrazin-2-yl)-7-[(1S,4S)-5-ethyl-2,5-diazabicyclo[2.2.1]hept-2-yl]-2H-chromen-2-one] |  |  |  | < 0.1 µM | **** (fold increase between >1.5 and ≤1.65) | < 300 nM |
| 176 to 179 °C | Cc1cn2cc(-c3cc4ccc(O[C@@H]5CCN(C(C)C)C5)cc4oc3=O)nc2c(C)n1 [Compound 891, 3-(6,8-dimethylimidazo[1,2-a]pyrazin-2-yl)-7-{[(3R)-1-(propan-2-yl)pyrrolidin-3-yl]oxy}-2H-chromen-2-one] |  |  |  | 0.1 to 0.3 µM | ***** (fold increase >1.65) | 300 to 1000 nM |
| 232 to 238 °C | Cn1cc2cc(-c3cc4ccc(C5CCNCC5)cc4oc3=O)ccc2n1 [Compound 856, 3-(2-methyl-2H-indazol-5-yl)-7-(piperidin-4-yl)-2H-chromen-2-one] |  |  |  | < 0.1 µM | ***** (fold increase >1.65) | < 300 nM |
| 235 to 238 °C | Cc1nc(Cl)cn2cc(-c3cc4ccc(N5CCN[C@@H](C)C5)cc4oc3=O)nc12 [Compound 713, 3-(6-chloro-8-methylimidazo[1,2-a]pyrazin-2-yl)-7-[(3S)-3-methylpiperazin-1-yl]-2H-chromen-2-one] |  |  |  | < 0.1 µM | *** (fold increase between >1.35 and ≤1.5) | < 300 nM |
| 197 to 200 °C | O=c1oc2cc(N3CCNCC3)ccc2cc1-c1cccnc1C(F)(F)F [Cpd 124, 7-(piperazin-1-yl)-3-[2-(trifluoromethyl)pyridin-3-yl]-2H-chromen-2-one] |  |  |  | 0.3 to 1 µM | ** (fold increase between >1.2 and ≤1.35) |  |
| 206 to 208 °C | Cc1cn2cc(-c3cc4ccc(N5CC[C@H](CN(C)C)C5)cc4oc3=O)nc2c(C)n1 [Compound 965, 7-{(3R)-3-[(dimethylamino)methyl]pyrrolidin-1-yl}-3-(6,8-dimethylimidazo[1,2-a]pyrazin-2-yl)-2H-chromen-2-one] |  |  |  | < 0.1 µM | *** (fold increase between >1.35 and ≤1.5) | < 300 nM |
| 263 to 266 °C | Cc1cn2cc(-c3cc4ccc(N5CCN(C6CC6)CC5)cc4oc3=O)nc2c(C)n1 [Compound 762, 7-(4-cyclopropylpiperazin-1-yl)-3-(6,8-dimethylimidazo[1,2-a]pyrazin-2-yl)-2H-chromen-2-one] |  |  |  | < 0.1 µM | **** (fold increase between >1.5 and ≤1.65) | 300 to 1000 nM |
| 230 to 240 °C | Cc1cc(F)c2nc(-c3cc4ccc(N[C@H]5CCNC5)cc4oc3=O)cn2c1 [Compound 582, 3-(8-fluoro-6-methylimidazo[1,2-a]pyridin-2-yl)-7-[(3S)-pyrrolidin-3-ylamino]-2H-chromen-2-one] |  |  |  | 0.3 to 1 µM | ** (fold increase between >1.2 and ≤1.35) |  |

Continued, compound first:

| Structure (SMILES) | melting point | EC (1.5-fold) ([1]; 24 h) | maximum fold (Fold) increase of Smn protein (Smn protein) | EC1.5x (concentration giving 1.5-fold Smn protein increase) (Smn protein) | EC (1.5-fold) [1, 2] | maximum fold (Fold) increase of Smn protein (Smn protein; [3]) | EC1.5x (concentration giving 1.5-fold Smn protein increase) (Smn protein; [4]) |
| --- | --- | --- | --- | --- | --- | --- | --- |
| Cc1cn2cc(-c3cc4ccc(C5=CCN(CCO)CC5)cc4oc3=O)nc2c(C)n1 [Compound 801, 3-(6,8-dimethylimidazo[1,2-a]pyrazin-2-yl)-7-[1-(2-hydroxyethyl)-1,2,3,6-tetrahydropyridin-4-yl]-2H-chromen-2-one] | 172 to 214 °C | < 0.1 µM | **** (key: *: maximum fold increase of ≤1.2; **: fold increase between >1.2 and ≤1.35; ***: fold increase between >1.35 and ≤1.5; ****: fold increase between >1.5 and ≤1.65; *****: fold increase >1.65) | < 300 nM |  |  |  |
| CCN(CC)Cc1ccc2cc(-c3nc4ccccc4s3)c(=O)oc2c1 [Compound 57, 3-(1,3-benzothiazol-2-yl)-7-[(diethylamino)methyl]-2H-chromen-2-one] | 116 to 119 °C |  |  |  | 1 to 3 µM | ** (fold increase between >1.2 and ≤1.35) |  |
| Cc1ccc2nc(-c3cc4ccc(CN5CCC(O)CC5)cc4oc3=O)cn2c1 [Compound 252, 7-[(4-hydroxypiperidin-1-yl)methyl]-3-(6-methylimidazo[1,2-a]pyridin-2-yl)-2H-chromen-2-one] | 261 to 264 °C |  |  |  | 3 to 30 µM | ** (fold increase between >1.2 and ≤1.35) |  |
| Cn1cc(-c2cc3ccc(N4CCNCC4)cc3oc2=O)c2ccccc21 [Compound 258, 3-(1-methyl-1H-indol-3-yl)-7-(piperazin-1-yl)-2H-chromen-2-one] | 201 to 203 °C |  |  |  | 0.3 to 1 µM | * (maximum fold increase of ≤1.2) |  |
| C[C@@H]1CN(c2ccc3cc(-c4cn5cccc(F)c5n4)c(=O)oc3c2)CCN1 [Compound 530, 3-(8-fluoroimidazo[1,2-a]pyridin-2-yl)-7-[(3R)-3-methylpiperazin-1-yl]-2H-chromen-2-one] | 226 to 228 °C |  |  |  | 0.3 to 1 µM | **** (fold increase between >1.5 and ≤1.65) | < 300 nM |
| CCc1ccn2cc(-c3cc4ccc(N5CCCN(C)CC5)cc4oc3=O)nc2c1 [Compound 333, 3-(7-ethylimidazo[1,2-a]pyridin-2-yl)-7-(4-methyl-1,4-diazepan-1-yl)-2H-chromen-2-one] | 181 to 187 °C |  |  |  | 0.3 to 1 µM | * (maximum fold increase of ≤1.2) |  |
| Cc1cnc2nc(-c3cc4ccc(N5CCN(C)CC5)cc4oc3=O)cn2c1 [Compound 242, 3-(6-methylimidazo[1,2-a]pyrimidin-2-yl)-7-(4-methylpiperazin-1-yl)-2H-chromen-2-one] | > 310 °C |  |  |  | 0.3 to 1 µM | *** (fold increase between >1.35 and ≤1.5) |  |
| Cc1csc(-c2cc3ccc(N4CCNC(C)(C)C4)cc3oc2=O)n1 [Compound 301, 7-(3,3-dimethylpiperazin-1-yl)-3-(4-methyl-1,3-thiazol-2-yl)-2H-chromen-2-one] | 204 to 209 °C |  |  |  | 1 to 3 µM | * (maximum fold increase of ≤1.2) |  |
| CN1CCN(c2ccc3cc(-c4nc5ccccc5s4)c(=O)oc3c2)CC1 [Compound 16, 3-(1,3-benzothiazol-2-yl)-7-(4-methylpiperazin-1-yl)-2H-chromen-2-one] | 259 to 262 °C |  |  |  | 0.3 to 1 µM | ** (fold increase between >1.2 and ≤1.35) |  |
| CN1CCCN(c2cc(F)c3cc(-c4cn5ccsc5n4)c(=O)oc3c2)CC1 [Compound 373, 5-fluoro-3-(imidazo[2,1-b][1,3]thiazol-6-yl)-7-(4-methyl-1,4-diazepan-1-yl)-2H-chromen-2-one] | 205 to 207 °C |  |  |  | < 0.1 µM | **** (fold increase between >1.5 and ≤1.65) | 300 to 1000 nM |
| Cc1ccc2nc(-c3cc4ccc(N5CCN[C@H](C)C5)cc4oc3=O)cn2c1 [Compound 220, 3-(6-methylimidazo[1,2-a]pyridin-2-yl)-7-[(3R)-3-methylpiperazin-1-yl]-2H-chromen-2-one] | 185 to 188 °C |  |  |  | 0.1 to 0.3 µM | ** (fold increase between >1.2 and ≤1.35) |  |
| Cc1cc(F)c2nc(-c3cc4ccc(N5CCCNCC5)cc4oc3=O)cn2c1 [Compound 427, 7-(1,4-diazepan-1-yl)-3-(8-fluoro-6-methylimidazo[1,2-a]pyridin-2-yl)-2H-chromen-2-one] | 242 to 252 °C |  |  |  | 0.3 to 1 µM | *** (fold increase between >1.35 and ≤1.5) |  |
| Cc1ccc2nc(-c3cc4cc(F)c(N5CCNCC5)cc4oc3=O)cn2c1 [Compound 158, 6-fluoro-3-(6-methylimidazo[1,2-a]pyridin-2-yl)-7-(piperazin-1-yl)-2H-chromen-2-one] | 245 to 250 °C |  |  |  | 1 to 3 µM | ** (fold increase between >1.2 and ≤1.35) |  |
| CSc1nccn2cc(-c3cc4ccc(N5C[C@@H](C)N[C@@H](C)C5)cc4oc3=O)nc12 [Compound 400, 7-[(3R,5S)-3,5-dimethylpiperazin-1-yl]-3-[8-(methylsulfanyl)imidazo[1,2-a]pyrazin-2-yl]-2H-chromen-2-one] | 283 to 285 °C |  |  |  | 3 to 30 µM | * (maximum fold increase of ≤1.2) |  |
| O=C(Oc1ccc2cc(-c3nc4ccccc4s3)c(=O)oc2c1)N1CCNCC1 [Compound 41, 3-(1,3-benzothiazol-2-yl)-2-oxo-2H-chromen-7-yl piperazine-1-carboxylate] | 221 to 225 °C | 1 to 3 µM |  |  |  | * (maximum fold increase of ≤1.2) |  |

— USRE47689E1, “Compounds for treating spinal muscular atrophy” (PTC Therapeutics, Inc., priority 2011, dated 2019)
